Earlier results as cited in patent US8759364B2, “Methods of treating bone mass diseases” (The Trustees of Columbia University in the City of New York, priority 2008, dated 2014).

Columns and labels:
[1] = tested on: Serotonin levels in the small intestine; details: mice, twice per day over 3-4 days, about 30-90 mg/kg; after six consecutive doses; cited from earlier work
[2] = tested on: serotonin in the GI tract; details: cited from earlier work
[3] = oral, single dose 250 mg to 2,000 mg/day and multiple doses 250-1,000 mg/day; all dose levels; cited from earlier work
brain serotonin levels = details: in the amounts administered to mice; cited from earlier work
brain-derived serotonin = details: mice, cited from earlier work
TPH2 = target: T1, TPH2 (Homo sapiens, UniProt Q8IWU9); details: cited from earlier work
T1 sequence (Q8IWU9 1-490): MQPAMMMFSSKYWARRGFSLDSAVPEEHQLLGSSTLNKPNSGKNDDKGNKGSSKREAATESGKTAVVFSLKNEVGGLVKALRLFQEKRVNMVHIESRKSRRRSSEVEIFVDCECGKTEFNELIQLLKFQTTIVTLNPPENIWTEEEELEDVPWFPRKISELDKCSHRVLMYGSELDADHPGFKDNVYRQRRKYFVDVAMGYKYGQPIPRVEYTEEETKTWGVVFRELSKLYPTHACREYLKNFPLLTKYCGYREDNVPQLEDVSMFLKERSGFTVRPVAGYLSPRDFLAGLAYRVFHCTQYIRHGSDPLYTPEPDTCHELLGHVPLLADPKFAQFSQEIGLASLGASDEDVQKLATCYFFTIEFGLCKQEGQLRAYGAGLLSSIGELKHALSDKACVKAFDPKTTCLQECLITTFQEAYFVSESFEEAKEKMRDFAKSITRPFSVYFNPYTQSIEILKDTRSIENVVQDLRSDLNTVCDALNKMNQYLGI

[4] = in vivo; cited from earlier work

Row | Structure (SMILES) | Serotonin levels in the small intestine [1] | serotonin in the GI tract reduced to fraction of normal levels ([2]; 135 mg/kg, po, qd) | dose response of GI tract serotonin reduction ([2]; mouse, in vivo) | adverse events [3] | brain serotonin levels (brain serotonin levels) | brain-derived serotonin (brain-derived serotonin; twice per day over 3-4 days, about 30-90 mg/kg) | crossing of the blood-brain barrier in vivo (brain-derived serotonin) | inhibition of TPH2 compared with TPH1 (TPH2) | absorption from the GI tract [4]
1 | Nc1nc(OC(c2ccc(-c3cccc(F)c3)cc2)C(F)(F)F)cc(-c2ccc(C[C@H](N)C(=O)O)cc2)n1 (stereo partly drawn) [LP-533401] | significantly lowered | less than ⅔ | dose response curve | Infrequent | not affected | unchanged | did not cross | as effectively as | 
2 | CC(C)NCC(O)COc1cccc2[nH]ccc12 (stereo not drawn) [Pindolol, pindolol] |  |  |  |  |  |  |  |  | beta blocker; rapidly and well
